Source: ChEMBL document CHEMBL4396916, “Novel potent substituted 4-amino-2-thiopyrimidines as dual VEGFR-2 and BRAF kinase inhibitors” (Eur J Med Chem, 2019)

Assays:
[1] = target: Vascular endothelial growth factor receptor 2 (Homo sapiens, UniProt P35968); assay: Inhibition of human N-terminal GST tagged VEGFR-2 expressed in baculovirus infected Sf9 cells using poly (Glu,Tyr) 4:1 as substrate in presence of ATP by Kinase-Glo luminescence assay
CCRF-CEM = assay: Growth inhibition of human CCRF-CEM cells at 10 uM incubated for 48 hrs by sulforhodamine B assay relative to control; type: functional; details: read-out: GI
HL-60(TB) = assay: Growth inhibition of human HL-60(TB) cells at 10 uM incubated for 48 hrs by sulforhodamine B assay relative to control; type: functional; details: HL-60, 48 h, read-out: GI
K562 = assay: Growth inhibition of human K562 cells at 10 uM incubated for 48 hrs by sulforhodamine B assay relative to control; type: functional; details: K562, 48 h, read-out: GI
MOLT-4 = assay: Growth inhibition of human MOLT4 cells at 10 uM incubated for 48 hrs by sulforhodamine B assay relative to control; type: functional; details: MOLT-4, 48 h, read-out: GI
RPMI-8226 = assay: Growth inhibition of human RPMI8226 cells at 10 uM incubated for 48 hrs by sulforhodamine B assay relative to control; type: functional; details: RPMI-8226, 48 h, read-out: GI
A549 = assay: Growth inhibition of human A549/ATCC cells at 10 uM incubated for 48 hrs by sulforhodamine B assay relative to control; type: functional; details: A549, 48 h, read-out: GI
EKVX = assay: Growth inhibition of human EKVX cells at 10 uM incubated for 48 hrs by sulforhodamine B assay relative to control; type: functional; details: read-out: GI
HOP-62 = assay: Growth inhibition of human HOP62 cells at 10 uM incubated for 48 hrs by sulforhodamine B assay relative to control; type: functional; details: HOP-62, 48 h, read-out: GI
NCI-H226 = assay: Growth inhibition of human NCI-H226 cells at 10 uM incubated for 48 hrs by sulforhodamine B assay relative to control; type: functional; details: NCI-H226, 48 h, read-out: GI
NCI-H23 = assay: Growth inhibition of human NCI-H23 cells at 10 uM incubated for 48 hrs by sulforhodamine B assay relative to control; type: functional; details: NCI-H23, 48 h, read-out: GI
NCI-H522 = assay: Growth inhibition of human NCI-H522 cells at 10 uM incubated for 48 hrs by sulforhodamine B assay relative to control; type: functional; details: NCI-H522, 48 h, read-out: GI
HCT-116 = assay: Growth inhibition of human HCT116 cells at 10 uM incubated for 48 hrs by sulforhodamine B assay relative to control; type: functional; details: HCT-116, 48 h, read-out: GI
SF-295 = assay: Growth inhibition of human SF295 cells at 10 uM incubated for 48 hrs by sulforhodamine B assay relative to control; type: functional; details: SF-295, 48 h, read-out: GI
SNB-19 = assay: Growth inhibition of human SNB19 cells at 10 uM incubated for 48 hrs by sulforhodamine B assay relative to control; type: functional; details: SNB-19, 48 h, read-out: GI
SNB-75 = assay: Growth inhibition of human SNB75 cells at 10 uM incubated for 48 hrs by sulforhodamine B assay relative to control; type: functional; details: SNB-75, 48 h, read-out: GI
U-251 = assay: Growth inhibition of human U251 cells at 10 uM incubated for 48 hrs by sulforhodamine B assay relative to control; type: functional; details: U-251, 48 h, read-out: GI
LOX IMVI = assay: Growth inhibition of human LOXIMVI cells at 10 uM incubated for 48 hrs by sulforhodamine B assay relative to control; type: functional; details: read-out: GI
SK-MEL-5 = assay: Growth inhibition of human SK-MEL-5 cells at 10 uM incubated for 48 hrs by sulforhodamine B assay relative to control; type: functional; details: SK-MEL-5, 48 h, read-out: GI
UACC-62 = assay: Growth inhibition of human UACC62 cells at 10 uM incubated for 48 hrs by sulforhodamine B assay relative to control; type: functional; details: UACC-62, 48 h, read-out: GI
IGROV-1 = assay: Growth inhibition of human IGROV1 cells at 10 uM incubated for 48 hrs by sulforhodamine B assay relative to control; type: functional; details: IGROV-1, 48 h, read-out: GI
NCI/ADR-RES = assay: Growth inhibition of human NCI/ADR-RES cells at 10 uM incubated for 48 hrs by sulforhodamine B assay relative to control; type: functional; details: read-out: GI
SK-OV-3 = assay: Growth inhibition of human SKOV3 cells at 10 uM incubated for 48 hrs by sulforhodamine B assay relative to control; type: functional; details: SK-OV-3, 48 h, read-out: GI
ACHN = assay: Growth inhibition of human ACHN cells at 10 uM incubated for 48 hrs by sulforhodamine B assay relative to control; type: functional; details: read-out: GI
CAKI-1 = assay: Growth inhibition of human Caki1 cells at 10 uM incubated for 48 hrs by sulforhodamine B assay relative to control; type: functional; details: CAKI-1, 48 h, read-out: GI
RXF 393 = assay: Growth inhibition of human RXF393 cells at 10 uM incubated for 48 hrs by sulforhodamine B assay relative to control; type: functional; details: RXF 393, 48 h, read-out: GI
SN12C = assay: Growth inhibition of human SN12C cells at 10 uM incubated for 48 hrs by sulforhodamine B assay relative to control; type: functional; details: read-out: GI
UO-31 = assay: Growth inhibition of human UO31 cells at 10 uM incubated for 48 hrs by sulforhodamine B assay relative to control; type: functional; details: UO-31, 48 h, read-out: GI
PC-3 = assay: Growth inhibition of human PC3 cells at 10 uM incubated for 48 hrs by sulforhodamine B assay relative to control; type: functional; details: PC-3, 48 h, read-out: GI
MCF7 [2] = assay: Growth inhibition of human MCF7 cells at 10 uM incubated for 48 hrs by sulforhodamine B assay relative to control; type: functional; details: MCF7, 48 h, read-out: GI
MDA-MB-231 = assay: Growth inhibition of human MDA-MB-231 cells at 10 uM incubated for 48 hrs by sulforhodamine B assay relative to control; type: functional; details: MDA-MB-231, 48 h, read-out: GI
Hs-578T = assay: Growth inhibition of human Hs578T cells at 10 uM incubated for 48 hrs by sulforhodamine B assay relative to control; type: functional; details: read-out: GI
T47D [3] = assay: Growth inhibition of human T47D cells at 10 uM incubated for 48 hrs by sulforhodamine B assay relative to control; type: functional; details: read-out: GI
MDA-MB-468 = assay: Growth inhibition of human MDA-MB-468 cells at 10 uM incubated for 48 hrs by sulforhodamine B assay relative to control; type: functional; details: MDA-MB-468, 48 h, read-out: GI
MCF7 [4] = assay: Cytotoxicity against human MCF7 cells expressing VEGFR2 and wild type BRAF measured after 48 hrs by sulforhodamine B assay; type: functional, cell-based; details: MCF7, 48 h
T47D [5] = assay: Cytotoxicity against human T47D cells expressing wild type BRAF measured after 48 hrs by sulforhodamine B assay; type: functional, cell-based

Chain of Vascular endothelial growth factor receptor 2 (P35968 whole entry): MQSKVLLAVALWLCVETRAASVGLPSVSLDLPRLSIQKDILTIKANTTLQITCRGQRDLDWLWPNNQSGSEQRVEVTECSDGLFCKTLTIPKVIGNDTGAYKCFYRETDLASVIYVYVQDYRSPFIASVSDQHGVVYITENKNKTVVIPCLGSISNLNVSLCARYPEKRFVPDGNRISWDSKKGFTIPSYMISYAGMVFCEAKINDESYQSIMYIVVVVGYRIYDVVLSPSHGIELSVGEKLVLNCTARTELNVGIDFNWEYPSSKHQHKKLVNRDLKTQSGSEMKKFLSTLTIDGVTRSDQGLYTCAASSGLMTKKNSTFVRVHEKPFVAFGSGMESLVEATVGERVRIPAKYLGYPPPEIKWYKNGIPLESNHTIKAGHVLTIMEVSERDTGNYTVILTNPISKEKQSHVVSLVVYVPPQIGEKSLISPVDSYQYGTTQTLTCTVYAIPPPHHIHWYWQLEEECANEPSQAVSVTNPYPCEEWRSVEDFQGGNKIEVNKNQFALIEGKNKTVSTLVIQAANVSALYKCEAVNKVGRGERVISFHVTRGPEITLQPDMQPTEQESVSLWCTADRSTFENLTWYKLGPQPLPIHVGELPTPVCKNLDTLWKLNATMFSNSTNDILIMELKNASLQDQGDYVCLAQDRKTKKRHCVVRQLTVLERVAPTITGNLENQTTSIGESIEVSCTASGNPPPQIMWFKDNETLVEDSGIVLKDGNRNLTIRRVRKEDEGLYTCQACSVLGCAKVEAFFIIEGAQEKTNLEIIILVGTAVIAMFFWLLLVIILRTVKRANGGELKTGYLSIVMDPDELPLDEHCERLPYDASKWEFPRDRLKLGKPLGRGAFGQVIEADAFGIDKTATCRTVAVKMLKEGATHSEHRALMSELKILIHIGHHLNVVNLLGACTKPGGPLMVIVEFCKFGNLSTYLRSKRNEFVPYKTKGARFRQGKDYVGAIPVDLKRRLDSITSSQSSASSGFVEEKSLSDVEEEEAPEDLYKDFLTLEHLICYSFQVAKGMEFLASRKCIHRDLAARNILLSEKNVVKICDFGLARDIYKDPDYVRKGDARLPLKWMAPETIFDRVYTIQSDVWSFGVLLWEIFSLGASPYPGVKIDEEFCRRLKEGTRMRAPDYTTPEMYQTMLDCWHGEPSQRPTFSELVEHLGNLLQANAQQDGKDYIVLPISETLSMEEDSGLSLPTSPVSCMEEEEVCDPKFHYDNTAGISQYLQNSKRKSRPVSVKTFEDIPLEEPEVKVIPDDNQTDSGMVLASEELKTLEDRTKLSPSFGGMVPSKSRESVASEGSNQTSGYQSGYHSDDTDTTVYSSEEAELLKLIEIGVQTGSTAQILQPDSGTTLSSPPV

CC(=O)c1cccc(Nc2ccnc(SCC(=O)c3ccc(C(F)(F)F)cc3)n2)c1
IC50 [1]: > 10 µM | inhibition of growth at 10 µM (CCRF-CEM): 10% | inhibition of growth at 10 µM (HL-60(TB)): < 10% | inhibition of growth at 10 µM (K562): 29% | inhibition of growth at 10 µM (MOLT-4): 24% | inhibition of growth at 10 µM (RPMI-8226): 31% | inhibition of growth at 10 µM (A549): 12% | inhibition of growth at 10 µM (EKVX): 28% | inhibition of growth at 10 µM (HOP-62): 17% | inhibition of growth at 10 µM (NCI-H226): 24% | inhibition of growth at 10 µM (NCI-H23): 21% | inhibition of growth at 10 µM (NCI-H522): 27% | inhibition of growth at 10 µM (HCT-116): 28% | inhibition of growth at 10 µM (SF-295): 15% | inhibition of growth at 10 µM (SNB-19): 10% | inhibition of growth at 10 µM (SNB-75): 32% | inhibition of growth at 10 µM (U-251): 12% | inhibition of growth at 10 µM (LOX IMVI): 13% | inhibition of growth at 10 µM (SK-MEL-5): 14% | inhibition of growth at 10 µM (UACC-62): 29% | inhibition of growth at 10 µM (IGROV-1): 44% | inhibition of growth at 10 µM (NCI/ADR-RES): 11% | inhibition of growth at 10 µM (SK-OV-3): 21% | inhibition of growth at 10 µM (ACHN): 19% | inhibition of growth at 10 µM (CAKI-1): 42% | inhibition of growth at 10 µM (RXF 393): 11% | inhibition of growth at 10 µM (SN12C): 17% | inhibition of growth at 10 µM (UO-31): 57% | inhibition of growth at 10 µM (PC-3): 30% | inhibition of growth at 10 µM (MCF7 [2]): 26% | inhibition of growth at 10 µM (MDA-MB-231): 22% | inhibition of growth at 10 µM (Hs-578T): 11% | inhibition of growth at 10 µM (T47D [3]): 37% | inhibition of growth at 10 µM (MDA-MB-468): 16% | IC50 (MCF7 [4]): 28.2 µM | IC50 (T47D [5]): 17.1 µM
